Literature values, collected in patent US8158153B2, “Nanoparticulate bisphosphonate compositions” (Alkermes Pharma Ireland Limited, priority 2005, dated 2012).
Entries after “also recorded” stand apart in the source; their conditions may differ. Structures can show the parent of a compound that is named as a salt.

Key:
[1] = patients; clinical use
[2] = 1% solution in distilled water

Row | SMILES | side effects / adverse effects [1] | solubility in organic solvents (organic solvents) | solubility in water | pH of a 1% solution [2]
1 | CCCCCN(C)CCC(O)(P(=O)([O-])O)P(=O)(O)O.O.[Na+] [Ibandronate sodium, 3-(N-methyl-N-pentyl) amino-1-hydroxypropane-1,1-diphosphonic acid, monosodium salt, monohydrate] | gastrointestinal irritation | practically insoluble | freely soluble | –
2 | NCCC(O)(P(=O)([O-])O)P(=O)([O-])O.[Na+].[Na+] [Pamidronate disodium, phosphonic acid (3-amino-1-hydroxypropylidene) bis-, disodium salt, pentahydrate] | esophageal ulcers; also recorded: pain at the site of catheter insertion; also recorded: gastrointestinal pain | – | – | approximately 8.3
3 | CC(O)(P(=O)([O-])[O-])P(=O)(O)O.[Na+].[Na+] [etidronate disodium, disodium salt of (1-hydroxyethylidene) diphosphonic acid] | – | – | highly soluble | –
4 | O=P(O)(O)C(O)(Cc1cccnc1)P(=O)(O)O [Risedronate sodium, [1-hydroxy-2-(3-pyridinyl)ethylidene]bis[phosphonic acid] monosodium salt] | gastrointestinal irritation | – | – | –
